Where two headings read alike, the source gives them in different places.
How the values were obtained:
[1] = tested on: intracellular MRSA; assay type: cell-based, Staphylococcus aureus; details: for %GFP+ rep 1 / z-scoreMRSA+ rep 1: replicate 1; for %GFP+ rep 2 / z-scoreMRSA+ rep 2: replicate 2; for %GFP+ rep 3 / z-scoreMRSA+ rep 3: replicate 3; for z-scoreMRSA+ mean: mean of 3 replicates
Procedure, shortened: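 HeLa, MRSA-GFP at MOI ~6.8, 1 h infection; gentamicin 30 µg/ml for 15 min; inhibitor plus gentamicin 5 µg/ml overnight, 37°C/5% CO2; triplicate plates; FACS %GFP+ and cell count; hit = z ≤ -2 MRSA+, z ≥ -3 count.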

[2] = tested on: HeLa cells; test: Compound screen by flow cytometry: HeLa cell count as surrogate readout of cell viability (z-scoreHeLa); assay type: cell-based, human
Procedure, shortened: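 HeLa cells were infected with GFP-MRSA (mean MOI 6.8 ± 4.6) for 1 h, and extracellular bacteria were killed with 30 µg/ml gentamicin. Cells were then incubated overnight with kinase inhibitors in 5 µg/ml gentamicin, in triplicate against DMSO controls. Flow-cytometric cell count served as a viability surrogate, expressed as a plate z-score.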

[3] = PKIS compound screen raw data, MRSA-infected HeLa cells
[4] = Yes/No: effect without cell death
[5] = compound screen, MRSA-infected HeLa cells
[6] = PKIS compound screen raw data, HeLa cell count, replicate 1
[7] = PKIS compound screen raw data, HeLa cell count, replicate 2
[8] = PKIS compound screen raw data, HeLa cell count, replicate 3
[9] = compound screen, HeLa cell count, mean of 3 replicates
[10] = compound screen, HeLa cell count, replicate 1
[11] = compound screen, HeLa cell count, replicate 2
[12] = compound screen, HeLa cell count, replicate 3
[13] = PKIS compound screen, MRSA-infected HeLa cells
[14] = PKIS compound screen, Yes/No call
[15] = PKIS compound screen, Yes/No call (effect without cell death)
[16] = PKIS compound screen, Yes/No call on z-scoreMRSA+
[17] = PKIS compounds raw data, MRSA-infected HeLa cells
[18] = PKIS compound screen, HeLa cell count, mean of 3 replicates
[19] = PKIS compound screen, HeLa cell count, replicate 1
[20] = PKIS compound screen, HeLa cell count, replicate 2
[21] = PKIS compound screen, HeLa cell count, replicate 3
[22] = PKIS compound screen, Yes/No call on z-scoreHeLa
[23] = PKIS compound screen, mean of 3 replicates
[24] = PKIS compound screen, replicate 1
[25] = PKIS compound screen, replicate 2
[26] = PKIS compound screen, replicate 3
[27] = PKIS compounds raw data, replicate 1, HeLa cell count
[28] = PKIS compounds raw data, replicate 2, HeLa cell count
[29] = PKIS compounds raw data, replicate 3, HeLa cell count

Compound: CS(=O)(=O)CCNCc1nc(-c2ccc3ncnc(Nc4ccc(OCc5ccccc5)c(Cl)c4)c3c2)cs1 [GW582764A]
- %GFP+ rep 1 [1, 3]: 15.6%
- %GFP+ rep 2 [1, 3]: 19.2%
- %GFP+ rep 3 [1, 3]: 19.4%
- effect ([1]; Yes/No call from z-scoreMRSA+): No
- hit [1, 4]: No
- z-scoreMRSA+ mean [1, 5]: -1.31
- z-scoreMRSA+ rep 1 [1, 5]: -2.25
- z-scoreMRSA+ rep 2 [1, 5]: -0.83
- z-scoreMRSA+ rep 3 [1, 5]: -0.84
- cell count rep 1 [2, 6]: 3605
- cell count rep 2 [2, 7]: 3519
- cell count rep 3 [2, 8]: 4776
- cell death ([2]; Yes/No call from z-scoreHeLa): No
- z-scoreHeLa mean [2, 9]: -0.48
- z-scoreHeLa rep 1 [2, 10]: -0.54
- z-scoreHeLa rep 2 [2, 11]: -0.60
- z-scoreHeLa rep 3 [2, 12]: -0.29

Compound: c1ccc(Oc2ccc(Nc3ccnc4cc(-c5ccc(CNCCN6CCOCC6)o5)ccc34)cc2)nc1 [GW567145X]
- %GFP+ rep 1 [1, 3]: 20.5%
- %GFP+ rep 2 [1, 3]: 21.2%
- %GFP+ rep 3 [1, 3]: 22.8%
- z-scoreMRSA+ mean [1, 13]: 0.46
- z-scoreMRSA+ rep 1 [1, 13]: 0.46
- z-scoreMRSA+ rep 2 [1, 13]: 0.49
- z-scoreMRSA+ rep 3 [1, 13]: 0.43
- effect [1, 14]: No
- hit [1, 15]: No
- effect [1, 16]: No
- z-scoreMRSA+ mean ([1]; PKIS compound screen): -0.39
- z-scoreMRSA+ rep 1 ([1]; PKIS compound screen): -0.38
- z-scoreMRSA+ rep 2 ([1]; PKIS compound screen): -0.37
- z-scoreMRSA+ rep 3 ([1]; PKIS compound screen): -0.40
- %GFP+ rep 1 [1, 17]: 25.1%
- %GFP+ rep 2 [1, 17]: 24.1%
- %GFP+ rep 3 [1, 17]: 25.1%
- cell count rep 1 [2, 6]: 29321
- cell count rep 2 [2, 7]: 19879
- cell count rep 3 [2, 8]: 15455
- z-scoreHeLa mean [2, 18]: -0.58
- z-scoreHeLa rep 1 [2, 19]: -0.15
- z-scoreHeLa rep 2 [2, 20]: -0.93
- z-scoreHeLa rep 3 [2, 21]: -0.68
- cell death [2, 14]: No
- cell death [2, 22]: No
- z-scoreHeLa mean [2, 23]: 0.19
- z-scoreHeLa rep 1 [2, 24]: 0.019
- z-scoreHeLa rep 2 [2, 25]: 0.89
- z-scoreHeLa rep 3 [2, 26]: -0.32
- cell count rep 1 [2, 27]: 6078
- cell count rep 2 [2, 28]: 7342
- cell count rep 3 [2, 29]: 5085

Compound: Nc1ncc(-c2ccncc2)c2scc(-c3ccc4c(c3)CCN4C(=O)Cc3ccccc3)c12 [GSK2592465A]
- %GFP+ rep 1 [1, 3]: 23.8%
- %GFP+ rep 2 [1, 3]: 25.0%
- %GFP+ rep 3 [1, 3]: 22.8%
- effect ([1]; Yes/No call from z-scoreMRSA+): No
- hit [1, 4]: No
- z-scoreMRSA+ mean [1, 5]: 0.14
- z-scoreMRSA+ rep 1 [1, 5]: -0.34
- z-scoreMRSA+ rep 2 [1, 5]: 0.58
- z-scoreMRSA+ rep 3 [1, 5]: 0.18
- cell count rep 1 [2, 6]: 4912
- cell count rep 2 [2, 7]: 4633
- cell count rep 3 [2, 8]: 5392
- cell death ([2]; Yes/No call from z-scoreHeLa): No
- z-scoreHeLa mean [2, 9]: 0.25
- z-scoreHeLa rep 1 [2, 10]: 0.40
- z-scoreHeLa rep 2 [2, 11]: 0.26
- z-scoreHeLa rep 3 [2, 12]: 0.10

Compound: CN(c1ccc(NC(=O)Nc2cccc(Cl)c2)cc1)c1ccnc(N)n1 [GW830707A]
- %GFP+ rep 1 [1, 3]: 21.9%
- %GFP+ rep 2 [1, 3]: 21.1%
- %GFP+ rep 3 [1, 3]: 22.8%
- effect ([1]; Yes/No call from z-scoreMRSA+): No
- hit [1, 4]: No
- z-scoreMRSA+ mean [1, 5]: -0.32
- z-scoreMRSA+ rep 1 [1, 5]: -0.79
- z-scoreMRSA+ rep 2 [1, 5]: -0.37
- z-scoreMRSA+ rep 3 [1, 5]: 0.18
- cell count rep 1 [2, 6]: 2862
- cell count rep 2 [2, 7]: 2838
- cell count rep 3 [2, 8]: 4346
- cell death ([2]; Yes/No call from z-scoreHeLa): No
- z-scoreHeLa mean [2, 9]: -0.92
- z-scoreHeLa rep 1 [2, 10]: -1.07
- z-scoreHeLa rep 2 [2, 11]: -1.13
- z-scoreHeLa rep 3 [2, 12]: -0.56

Compound: O=C(NCCNc1ccnc(Nc2ccc(F)cc2)n1)Nc1ccccc1F [GSK1379880A]
- %GFP+ rep 1 [1, 3]: 25.7%
- %GFP+ rep 2 [1, 3]: 21.6%
- %GFP+ rep 3 [1, 3]: 22.7%
- effect ([1]; Yes/No call from z-scoreMRSA+): No
- hit [1, 4]: No
- z-scoreMRSA+ mean [1, 5]: 0.00131
- z-scoreMRSA+ rep 1 [1, 5]: 0.10
- z-scoreMRSA+ rep 2 [1, 5]: -0.25
- z-scoreMRSA+ rep 3 [1, 5]: 0.15
- cell count rep 1 [2, 6]: 4656
- cell count rep 2 [2, 7]: 4642
- cell count rep 3 [2, 8]: 6039
- cell death ([2]; Yes/No call from z-scoreHeLa): No
- z-scoreHeLa mean [2, 9]: 0.33
- z-scoreHeLa rep 1 [2, 10]: 0.22
- z-scoreHeLa rep 2 [2, 11]: 0.26
- z-scoreHeLa rep 3 [2, 12]: 0.51

Compound: c1ccc(-c2n[nH]cc2Nc2ccnc3ccccc23)nc1 [GW694077X]
- %GFP+ rep 1 [1, 3]: 15.2%
- %GFP+ rep 2 [1, 3]: 17.2%
- %GFP+ rep 3 [1, 3]: 15.3%
- z-scoreMRSA+ mean [1, 13]: -1.06
- z-scoreMRSA+ rep 1 [1, 13]: -0.96
- z-scoreMRSA+ rep 2 [1, 13]: -0.60
- z-scoreMRSA+ rep 3 [1, 13]: -1.62
- hit [1, 15]: No
- effect [1, 16]: No
- cell count rep 1 [2, 6]: 27159
- cell count rep 2 [2, 7]: 28509
- cell count rep 3 [2, 8]: 18866
- z-scoreHeLa mean [2, 18]: 0.01
- z-scoreHeLa rep 1 [2, 19]: -0.51
- z-scoreHeLa rep 2 [2, 20]: 0.55
- z-scoreHeLa rep 3 [2, 21]: -0.0113
- cell death [2, 22]: No

Compound: CCN(CC)CCOc1ccc(Nc2ncc3cc(-c4c(Cl)cccc4Cl)c(=O)n(C)c3n2)cc1 [SB-601273]
- %GFP+ rep 1 [1, 3]: 32.3%
- %GFP+ rep 2 [1, 3]: 28.1%
- %GFP+ rep 3 [1, 3]: 25.0%
- effect ([1]; Yes/No call from z-scoreMRSA+): No
- hit [1, 4]: No
- z-scoreMRSA+ mean [1, 5]: 1.27
- z-scoreMRSA+ rep 1 [1, 5]: 1.64
- z-scoreMRSA+ rep 2 [1, 5]: 1.33
- z-scoreMRSA+ rep 3 [1, 5]: 0.84
- cell death [2]: No
- cell count rep 1 ([2]; human): 895
- cell count rep 2 ([2]; human): 949
- cell count rep 3 ([2]; human): 1208
- z-scoreHeLa mean ([2]; human): -2.54
- z-scoreHeLa rep 1 ([2]; human): -2.49
- z-scoreHeLa rep 2 ([2]; human): -2.58
- z-scoreHeLa rep 3 ([2]; human): -2.55

Compound: CNc1nc(-c2ccc3c(N)n[nH]c3c2)cc(N2C[C@@H](C(=O)NC3CCCCC3)OC[C@H]2C)n1 [GSK2375584A]
- %GFP+ rep 1 [1, 3]: 21.4%
- %GFP+ rep 2 [1, 3]: 23.1%
- %GFP+ rep 3 [1, 3]: 26.2%
- effect ([1]; Yes/No call from z-scoreMRSA+): No
- hit [1, 4]: No
- z-scoreMRSA+ mean [1, 5]: 1.02
- z-scoreMRSA+ rep 1 [1, 5]: 0.70
- z-scoreMRSA+ rep 2 [1, 5]: 1.01
- z-scoreMRSA+ rep 3 [1, 5]: 1.36
- cell count rep 1 [2, 6]: 30717
- cell count rep 2 [2, 7]: 29074
- cell count rep 3 [2, 8]: 21029
- cell death ([2]; Yes/No call from z-scoreHeLa): No
- z-scoreHeLa mean [2, 9]: 0.38
- z-scoreHeLa rep 1 [2, 10]: 0.09
- z-scoreHeLa rep 2 [2, 11]: 0.65
- z-scoreHeLa rep 3 [2, 12]: 0.41

Compound: O=C(Nc1n[nH]c2cc(-c3ccccc3)ccc12)C1CC1 [SB-732941]
- effect [1, 14]: No
- hit [1, 15]: No
- z-scoreMRSA+ mean ([1]; PKIS compound screen): -0.19
- z-scoreMRSA+ rep 1 ([1]; PKIS compound screen): -0.15
- z-scoreMRSA+ rep 2 ([1]; PKIS compound screen): 0.30
- z-scoreMRSA+ rep 3 ([1]; PKIS compound screen): -0.74
- %GFP+ rep 1 [1, 17]: 12.7%
- %GFP+ rep 2 [1, 17]: 14.4%
- %GFP+ rep 3 [1, 17]: 13.4%
- cell death [2, 14]: No
- z-scoreHeLa mean [2, 23]: 0.28
- z-scoreHeLa rep 1 [2, 24]: 0.15
- z-scoreHeLa rep 2 [2, 25]: 0.37
- z-scoreHeLa rep 3 [2, 26]: 0.31
- cell count rep 1 [2, 27]: 4945
- cell count rep 2 [2, 28]: 4760
- cell count rep 3 [2, 29]: 7601

Compound: COc1cccc(-n2nc(C)c3c(N/N=C(\C)c4ccncc4)ncnc32)c1 [GW809885X]
- %GFP+ rep 1 [1, 17]: 10.1%
- %GFP+ rep 2 [1, 17]: 9.2%
- %GFP+ rep 3 [1, 17]: 10.0%
- effect ([1]; Yes/No call from z-scoreMRSA+): No
- hit [1, 4]: No
- z-scoreMRSA+ mean [1, 5]: -1.40
- z-scoreMRSA+ rep 1 [1, 5]: -0.98
- z-scoreMRSA+ rep 2 [1, 5]: -1.45
- z-scoreMRSA+ rep 3 [1, 5]: -1.76
- cell count rep 1 [2, 27]: 4315
- cell count rep 2 [2, 28]: 6939
- cell count rep 3 [2, 29]: 7689
- cell death ([2]; Yes/No call from z-scoreHeLa): No
- z-scoreHeLa mean [2, 9]: 0.65
- z-scoreHeLa rep 1 [2, 10]: -0.42
- z-scoreHeLa rep 2 [2, 11]: 2.02
- z-scoreHeLa rep 3 [2, 12]: 0.35

Reference: PMC10999543, “Identification of kinase modulators as host-directed therapeutics against intracellular methicillin-resistant Staphylococcus aureus” (Frontiers in Cellular and Infection Microbiology, 2024)
